Biological target: Protein farnesyltransferase (Rattus norvegicus, UniProt Q02293+Q04631)
Test: Tested for inhibitory activity against rat brain p21ras Ras Farnesyltransferase (FTase)

First: CSCC[C@@H](NC(=O)CN1C(=O)[C@H](N(C)C(=O)[C@@H](N)CS)N=C(c2ccccc2)c2ccccc21)C(=O)O
Second: CSCC[C@H](NC(=O)CN1C(=O)[C@H](N(C)C(=O)[C@@H](N)CS)N=C(c2ccccc2)c2ccccc21)C(=O)O (stereo in doubt; form 1)
The IC50 of the first is 4.6-fold lower: 80 nM for the first, 370 nM for the second. The first is the more potent here.

In the case of CSCC[C@H](NC(=O)CN1C(=O)[C@H](N(C)C(=O)[C@@H](N)CS)N=C(c2ccccc2)c2ccccc21)C(=O)O (stereo in doubt; form 2), the IC50 is reported as 0.85 nM.
CSCC[C@H](NC(=O)CN1C(=O)[C@H](N(C)C(=O)[C@@H](N)CS)N=C(c2ccccc2)c2ccccc21)C(=O)O (stereo in doubt; form 3) showed an IC50 of 2.1 nM.
